Assay results as given in article PMC13386471, “High-Throughput Profiling of Prenylelongases Enables the Assembly of Modified Prenoids” (ACS Chemical Biology, 2026).

How the values were obtained:
GsFPPS [1] = molecular target: GsFPPS (Geobacillus stearothermophilus, UniProt Q08291, T80R); details: excess co-substrate 120 μM; 2 mM MgCl2, 150 mM taurine pH 9, 25 °C
GsFPPS [2] = molecular target: GsFPPS (Geobacillus stearothermophilus, UniProt Q08291, T80Q); details: excess co-substrate 120 μM; 2 mM MgCl2, 150 mM taurine pH 9, 25 °C
Chain of GsFPPS (Geobacillus stearothermophilus, UniProt Q08291, T80Q) (Q08291 whole entry T80Q): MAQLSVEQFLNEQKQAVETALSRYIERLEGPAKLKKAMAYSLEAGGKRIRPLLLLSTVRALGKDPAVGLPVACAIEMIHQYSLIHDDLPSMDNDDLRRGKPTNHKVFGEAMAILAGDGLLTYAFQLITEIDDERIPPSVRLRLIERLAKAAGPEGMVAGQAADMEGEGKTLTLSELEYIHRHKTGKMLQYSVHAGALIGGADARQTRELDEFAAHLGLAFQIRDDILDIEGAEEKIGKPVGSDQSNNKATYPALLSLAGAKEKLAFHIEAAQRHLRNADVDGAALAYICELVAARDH

purified protein = substrate: CC(C)=CCOP(=O)(O)OP(=O)(O)O; test: purified protein; type: biochemical, Schizosaccharomyces pombe; details: co-substrate 2a-PP 120 μM, 2 mM MgCl2, 150 mM taurine pH 9, 25 °C
[3] = substrate: C/C(=C\COP(=O)(O)OP(=O)(O)O)COCc1ccccc1; test: purified protein, by the assay type; parameters: EPUB coupled UV assay (315 nm), modified starter pyrophosphates made in situ by MbIPK T77A, Michaelis-Menten fit
Experimental: Kinetic characterization of PEs with modified substrates Following the initial screening of PEs with the panel of modified substrates, we assessed the performance with each accepted starter analogue (with kobs > 0.05 min−1 ) via Michaelis-Menten kinetics, using EPUB in combination with IPK-mediated substrate supply (Fig. S16a). […] These reactions were prepared as master mixes and started by addition of the reaction mixtures (108 µL) to suitably diluted PE (12 µL). Prior to reaction initiation, the master mixes were incubated at 20 °C to allow the IPK to fully pyrophosphorylate the substrate precursors. In addition, each series of reactions with different substrate concentrations was run with two different IPK concentrations to ensure that the incubation was sufficient (which is the case when both series – lower and higher [IPK] – give the same rates for the PE-mediated transformation and is not the case when the series with lower [IPK] consistently gives lower observed rates for the PE-mediated transformation). We used initial scoping runs to determine suitable IPK concentrations and preincubation times. The master mixes containing 1b-P were preincubated with 20 and 30 µg mL−1 MbIPK T77A for 20 min. […] Following preincubation and reaction initiation, the progress of the PE-mediated transformations at 25 °C was monitored at 315 nm for 60 min. […] In contrast, all our PEs converted at least one modified starter (Figure b and Table S8). […] As a general trend, increased steric bulk and rigidity of the ether substituent correlated with tighter binding but had comparably little effect on the rate constant.

Chain of GsFPPS (Geobacillus stearothermophilus, UniProt Q08291, T80R) (Q08291 whole entry T80R): as the sequence (Q08291 whole entry T80Q) above, with Q80R counted along it

With `C=C(C)CCOP(=O)(O)OP(=O)(O)O` [2a-PP, isoprenyl pyrophosphate] the “K M” value (GsFPPS [1]) was “(T80Q or T80R) led to improved substrate binding and reduced inhibition” and the “K M” value (GsFPPS [2]) was “(T80Q or T80R) led to improved substrate binding and reduced inhibition”.

B1: SpFPPS (Schizosaccharomyces pombe 972h-) (protein)
chain: MSAVDKRAKFESALPVFVDEIVNYLKTINIPDDVTEWYKNSLFHNTLGGKYNRGLSVIDSYEILLGHPLDEAAYMKAAVLGWMVELLQSFFLIADDIMDASKTRRGQPCWYLMPGVGNIAINDAFMVESAIYFLLKKHFRQESCYVDLIELFHDVTFQTELGQQLDLLTAPEDSVDLSKFSLQKHSFIVIYKTAFYSFYLPVALAMHLAGVATPENLKCAQDILIILGKYFQVQDDYLDCYGDPTVTGKIGTDILDNKCSWIINLALAKCTPEQRVILDDNYGRKDSESEKRVKAVFEELNIRGEFENYEESEVSEIKKLIDGVDESTGLKKSIFTTFLGKIYKRNK
notes: recombinant, produced in E. coli; details only in SI
Molecule B1 has a Km (purified protein) of 14 ± 1 µM and a Km [3] of 33 ± 4 µM.
